CC(C)C[C@H](N)C(=O)O
solubility (mole fraction)
Conditions | 283.15 K | 288.15 K | 293.15 K | 298.15 K | 303.15 K | 308.15 K | 313.15 K | 318.15 K | 323.15 K | 328.15 K
in 1,4-dioxane | – | 3.61e-05 | 5.3e-05 | 7.25e-05 | 9.39e-05 | 0.000122 | 0.000149 | 0.00019 | 0.000238 | 0.000309
in acetone | 3.16e-05 | 4.52e-05 | 6.31e-05 | 8.39e-05 | 0.00011 | 0.000145 | 0.000179 | 0.000218 | 0.000269 | –
in acetonitrile | 3.87e-05 | 4.44e-05 | 5.02e-05 | 5.71e-05 | 6.68e-05 | 7.59e-05 | 8.6e-05 | 0.000102 | 0.000123 | –
in ethanol | 0.000146 | 0.00015 | 0.000156 | 0.000171 | 0.00019 | 0.000206 | 0.000221 | 0.000286 | 0.00034 | –
in ethyl acetate | 0.000156 | 0.000169 | 0.000197 | 0.000222 | 0.00026 | 0.000303 | 0.000341 | 0.000396 | 0.000449 | –
in isobutanol | 0.000152 | 0.000157 | 0.000162 | 0.000175 | 0.000201 | 0.000228 | 0.000254 | 0.000304 | 0.00035 | –
in isopropanol | 0.000156 | 0.00016 | 0.000173 | 0.000187 | 0.000212 | 0.000254 | 0.000271 | 0.000318 | 0.000368 | –
in methanol | 0.000558 | 0.000588 | 0.000655 | 0.000686 | 0.000744 | 0.000817 | 0.000896 | 0.001 | 0.00118 | –
in methyl acetate | 0.000158 | 0.000162 | 0.000168 | 0.000178 | 0.000192 | 0.000211 | 0.000227 | 0.000254 | 0.000287 | –
in n-butanol | 2.59e-05 | 2.78e-05 | 4.16e-05 | 5.42e-05 | 7.83e-05 | 0.000103 | 0.000129 | 0.000171 | 0.000215 | –
in n-propanol | 9.7e-05 | 0.000107 | 0.000123 | 0.000142 | 0.000163 | 0.000187 | 0.000217 | 0.00026 | 0.000316 | –
in water | 0.00322 | 0.00326 | 0.00331 | 0.00339 | 0.00348 | 0.00358 | 0.00374 | 0.00385 | 0.00404 | –
